The source of these data is ChEMBL document CHEMBL3091370, “3,5-bis(benzylidene)-4-piperidones and related N-acyl analogs: a novel cluster of antimalarials targeting the liver stage of Plasmodium falciparum” (Bioorg Med Chem, 2013).

Series [1] relates to Plasmodium berghei. The experiment in a line: Ratio of chloroquine IC50 to compound IC50 for liver stage Plasmodium berghei ANKA sporozoites infected in human HepG2 cells. It counts as functional.
Series [2] can be described thus: Efflux ratio of apparent permeability from basolateral to apical side to apical to basolateral side in MDCK cells. It counts as ADME, cell-based, Canis lupus familiaris. Conditions: dog.
Series [3] is described as follows: Apparent permeability from apical to basolateral side in MDCK cells at 10 uM after 1 hr by LC/MS analysis. It counts as ADME, cell-based, Canis lupus familiaris. Conditions: dog.
A short description of series [4]: Half life in human plasma at 1 mM by LC/MS analysis. It counts as ADME, cell-free.
The nature of series [5]: Apparent permeability from basolateral to apical side in MDCK cells at 10 uM after 1 hr by LC/MS analysis. It counts as ADME, cell-based, Canis lupus familiaris. Conditions: dog.
Series [6] has as its system Plasmodium falciparum. The experiment in a line: Antimalarial activity against drug-sensitive Plasmodium falciparum D6 after 72 hrs by SYBR green I staining-based fluorescence assay. It counts as functional, organism-based. Conditions: D6, 72 h.
Series [7] has as its system Plasmodium falciparum. The experiment in a line: Ratio of IC50 for drug-resistant Plasmodium falciparum C235 to IC50 for drug-sensitive Plasmodium falciparum D6. It counts as functional.
Series [8] deals with Plasmodium falciparum. The series can be described thus: Antimalarial activity against drug-resistant Plasmodium falciparum C235 after 72 hrs by SYBR green I staining-based fluorescence assay. Conditions: C235, 72 h. It counts as functional, organism-based.
The test system of series [9] is Plasmodium berghei. The experiment in a line: Ratio of mefloquine IC50 to compound IC50 for liver stage Plasmodium berghei ANKA sporozoites infected in human HepG2 cells. It counts as functional.
Series [10] concerns Plasmodium berghei. The experiment in a line: Antimalarial activity against liver stage Plasmodium berghei ANKA sporozoites infected in human HepG2 cells after 48 hrs by luciferase reporter gene assay. The conditions noted are these: HepG2, 48 h. It counts as functional, organism-based. For orientation: In a reporter assay the amount or activity of a reporter protein is the signal.

The next series relates to HepG2. The series can be described thus: Cytotoxicity against human HepG2 cells after 48 hrs by MTT assay. It counts as cell-based. The conditions noted are these: HepG2, 48 h. For orientation: Tetrazolium assays rely on reduction of a dye to a coloured formazan, in cell work by metabolically active cells.
Series [11] in a line: Half life in mouse plasma at 1 mM by LC/MS analysis. It counts as ADME, cell-free.

In brackets after ≈: the same amount, converted by molar mass.

`O=C1/C(=C/c2ccccc2)CNC/C1=C\c1ccccc1`: the “Ratio IC50” value in the series with Plasmodium berghei [1] is above 21; in the series on Plasmodium falciparum [7], 1.17; in the series with Plasmodium berghei [9] it was above 21. In addition, in series [2], the efflux ratio (commonly a quotient of directional permeabilities that is used to spot active efflux) came to 0.02. Besides, the Papp A→B (as a rule, the apparent permeability from the apical to the basolateral side of a cell layer) at 1 h, 10 µM in [3] came out at 5.74 ×10⁻⁶ cm/s. Further, the results for the half-life in [4] and in series [11] were 11.8 min and 19.5 min, respectively. Also, in series [5], the Papp B→A (as a rule, how fast a substance crosses the layer from the basolateral side) at 1 h, 10 µM was 0.1 ×10⁻⁶ cm/s. Also, the IC50 (commonly the concentration that gives 50% inhibition) in the series with Plasmodium falciparum [6] was 0.139 µg/mL (≈ 0.505 µM); with Plasmodium falciparum [8], 0.162 µg/mL (≈ 0.588 µM); in the series on Plasmodium berghei [10], 0.0935 µg/mL (≈ 0.34 µM); with HepG2 it was above 2 µg/mL.
For the compound `Cc1ccc(/C=C2\CNC/C(=C\c3ccc(C)cc3)C2=O)cc1`, the half-life (as a rule, how long it takes for the measured level to halve) in [4] turned out to be 17.2 min; in [11], 14.6 min. Besides, the half-maximal inhibitory concentration (IC50) in the series with Plasmodium falciparum [6] is 0.249 µg/mL (≈ 0.821 µM); with Plasmodium falciparum [8], 0.285 µg/mL (≈ 0.939 µM); in the series with Plasmodium berghei [10], 0.159 µg/mL (≈ 0.524 µM); in the series on HepG2 it was above 2 µg/mL. In addition, in the series on Plasmodium falciparum [7], the “Ratio IC50” value was 1.15.
As for `O=C1/C(=C/c2ccc(Cl)cc2)CNC/C1=C\c1ccc(Cl)cc1`, the half-life in series [4] and in [11] was above 60 min throughout. In addition, the half-inhibitory concentration (IC50) is 0.103 µg/mL (≈ 0.299 µM) in the series on Plasmodium falciparum [6], 0.128 µg/mL (≈ 0.372 µM) in the series on Plasmodium falciparum [8], 0.597 µg/mL (≈ 1.73 µM) with Plasmodium berghei [10] and above 2 µg/mL in the series on HepG2. For the same compound, in the series with Plasmodium falciparum [7], the “Ratio IC50” value is listed as 1.24.
Turning to `O=C1/C(=C/c2ccc([N+](=O)[O-])cc2)CNC/C1=C\c1ccc([N+](=O)[O-])cc1`, the efflux ratio in series [2] was found to be 0.01. In addition, in [3], the Papp A→B at 1 h, 10 µM came out at 0.28 ×10⁻⁶ cm/s. Also, the half-life is above 60 min in [4] and 22.5 min in series [11]. Also, the half-inhibitory concentration (IC50) with Plasmodium falciparum [6] is 0.0375 µg/mL (≈ 0.103 µM); in the series with Plasmodium falciparum [8], 0.0412 µg/mL (≈ 0.113 µM); with Plasmodium berghei [10], 0.356 µg/mL (≈ 0.974 µM); in the series on HepG2, above 2 µg/mL. For the same compound, in the series on Plasmodium falciparum [7], the “Ratio IC50” value is given as 1.1.
On to `Cc1ccc(/C=C2\CN(C(=O)c3ccc(OCCN4CCOCC4)cc3)C/C(=C\c3ccc(C)cc3)C2=O)cc1.Cl`, for which the IC50 in the series with Plasmodium falciparum [6] is 0.846 µg/mL; in the series on Plasmodium falciparum [8], above 2 µg/mL. Further, in the series with Plasmodium falciparum [7], the “Ratio IC50” value is recorded as above 2.36.
On the same counts, the results for `Cl.O=C1/C(=C/c2ccc(Cl)cc2)CN(C(=O)c2ccc(OCCN3CCCCC3)cc2)C/C1=C\c1ccc(Cl)cc1` are above 2 µg/mL, above 2 µg/mL and above 1.06.
For `CN(C)CCOc1ccc(C(=O)N2C/C(=C\c3ccc(Cl)cc3)C(=O)/C(=C/c3ccc(Cl)cc3)C2)cc1.Cl`, in that order: 0.497 µg/mL, 0.565 µg/mL and 1.14.
On to `CCN(CC)CCOc1ccc(C(=O)N2C/C(=C\c3ccccc3)C(=O)/C(=C/c3ccccc3)C2)cc1.Cl`, for which the 50% inhibitory concentration (IC50) is 0.412 µg/mL with Plasmodium falciparum [6], 0.311 µg/mL in the series on Plasmodium falciparum [8], 0.383 µg/mL in the series on Plasmodium berghei [10] and above 2 µg/mL in the series with HepG2. In addition, the “Ratio IC50” value in the series on Plasmodium falciparum [7] is on record as 0.76.
On to `Cl.O=C1/C(=C/c2ccc([N+](=O)[O-])cc2)CN(C(=O)c2ccc(OCCN3CCOCC3)cc2)C/C1=C\c1ccc([N+](=O)[O-])cc1`, for which the concentration for half-maximal inhibition (IC50) in the series with Plasmodium falciparum [6] is 0.433 µg/mL; with Plasmodium falciparum [8], 0.53 µg/mL; with Plasmodium berghei [10], 0.357 µg/mL; in the series on HepG2, above 2 µg/mL. Also, in the series with Plasmodium falciparum [7], the “Ratio IC50” value turned out to be 1.22.
Consider `Cl.O=C1/C(=C/c2ccccc2)CN(C(=O)c2ccc(OCCN3CCOCC3)cc2)C/C1=C\c1ccccc1`, for which the half-inhibitory concentration (IC50) in the series on Plasmodium falciparum [6] is 1.42 µg/mL; in the series with Plasmodium falciparum [8], above 2 µg/mL. Also, the “Ratio IC50” value in the series on Plasmodium falciparum [7] is above 1.41.
For the compound `CCN(CC)CCOc1ccc(C(=O)N2C/C(=C\c3ccc(C)cc3)C(=O)/C(=C/c3ccc(C)cc3)C2)cc1.Cl`, the IC50 is 0.536 µg/mL in the series with Plasmodium falciparum [6], 0.555 µg/mL in the series with Plasmodium falciparum [8], 0.483 µg/mL in the series on Plasmodium berghei [10] and above 2 µg/mL with HepG2. In addition, in the series on Plasmodium falciparum [7], the “Ratio IC50” value amounted to 1.03.
Take `Cc1ccc(/C=C2\CN(C(=O)c3ccc(OCCN4CCCCC4)cc3)C/C(=C\c3ccc(C)cc3)C2=O)cc1.Cl`: the IC50 with Plasmodium falciparum [6] was 0.682 µg/mL; in the series on Plasmodium falciparum [8] it was 0.713 µg/mL. Besides, the “Ratio IC50” value with Plasmodium falciparum [7] stood at 1.05.
In the case of `CCN(CC)CCOc1ccc(C(=O)N2C/C(=C\c3ccc([N+](=O)[O-])cc3)C(=O)/C(=C/c3ccc([N+](=O)[O-])cc3)C2)cc1.Cl`, the IC50 in the series with Plasmodium falciparum [6] was 0.202 µg/mL; in the series with Plasmodium falciparum [8] it was 0.146 µg/mL; with Plasmodium berghei [10] it was 0.186 µg/mL; in the series with HepG2 it was above 2 µg/mL. For the same compound, the “Ratio IC50” value in the series on Plasmodium falciparum [7] is 0.72.
For `CN(C)CCOc1ccc(C(=O)N2C/C(=C\c3ccc([N+](=O)[O-])cc3)C(=O)/C(=C/c3ccc([N+](=O)[O-])cc3)C2)cc1.Cl`, in that order: 0.424 µg/mL, 0.372 µg/mL, 0.31 µg/mL, above 2 µg/mL and 0.88.
On the same counts, the results for `Cl.O=C1/C(=C/c2ccc([N+](=O)[O-])cc2)CN(C(=O)c2ccc(OCCN3CCCCC3)cc2)C/C1=C\c1ccc([N+](=O)[O-])cc1` are 0.25 µg/mL, 0.288 µg/mL, 0.165 µg/mL, above 2 µg/mL and 1.15.
`Cl.O=C1/C(=C/c2ccccc2)CN(C(=O)c2ccc(OCCN3CCCCC3)cc2)C/C1=C\c1ccccc1`: the results for the IC50 in the series on Plasmodium falciparum [6] and with Plasmodium falciparum [8] were 0.794 µg/mL and 0.74 µg/mL, respectively. Also, the “Ratio IC50” value with Plasmodium falciparum [7] is 0.93.
As to `CN(C)CCOc1ccc(C(=O)N2C/C(=C\c3ccccc3)C(=O)/C(=C/c3ccccc3)C2)cc1.Cl`, the IC50 in the series with Plasmodium falciparum [6] is 1.75 µg/mL; with Plasmodium falciparum [8], above 2 µg/mL. The “Ratio IC50” value in the series with Plasmodium falciparum [7] is reported as above 1.14.
Consider `CCN(CC)CCOc1ccc(C(=O)N2C/C(=C\c3ccc(Cl)cc3)C(=O)/C(=C/c3ccc(Cl)cc3)C2)cc1.Cl`, for which the IC50 in the series with Plasmodium falciparum [6] and in the series on Plasmodium falciparum [8] was above 2 µg/mL throughout.
Regarding `Cc1ccc(/C=C2\CN(C(=O)c3ccc(OCCN(C)C)cc3)C/C(=C\c3ccc(C)cc3)C2=O)cc1.Cl`, the IC50 with Plasmodium falciparum [6], in the series on Plasmodium falciparum [8], with Plasmodium berghei [10] and with HepG2 was above 2 µg/mL throughout.
`O[C@@H](c1cc(C(F)(F)F)nc2c(C(F)(F)F)cccc12)[C@H]1CCCCN1` (relative stereo) [(S,R)-MEFLOQUINE]: the efflux ratio in [2] is 6.17. Besides, in [3], the Papp A→B at 1 h, 10 µM was 0.6 ×10⁻⁶ cm/s. In addition, the half-life in [4] and in series [11] was above 60 min each time. Also, the apparent permeability from basolateral to apical (Papp B→A) at 1 h, 10 µM in series [5] was 3.7 ×10⁻⁶ cm/s. The half-maximal inhibitory concentration (IC50) in the series with Plasmodium falciparum [6] was 0.0066 µg/mL (≈ 0.0174 µM); with Plasmodium falciparum [8], 0.0167 µg/mL (≈ 0.0441 µM); in the series on Plasmodium berghei [10], above 2 µg/mL; with HepG2, above 2 µg/mL. In addition, the “Ratio IC50” value in the series with Plasmodium falciparum [7] came out at 2.
As for `CCN(CC)CCCC(C)Nc1ccnc2cc(Cl)ccc12.O=P(O)(O)O.O=P(O)(O)O` (stereo not drawn) [CHLOROQUINE PHOSPHATE], the concentration for half-maximal inhibition (IC50) in the series on Plasmodium berghei [10] and in the series on HepG2 was above 2 µg/mL in each case.
As to `CCN(CC)CCCC(C)Nc1ccnc2cc(Cl)ccc12` (stereo not drawn) [CHLOROQUINE], the Papp A→B at 1 h, 10 µM in [3] was 13 ×10⁻⁶ cm/s. Further, the half-life in series [4] and in [11] was above 60 min throughout. Further, the basolateral-to-apical permeability (Papp B→A) at 1 h, 10 µM in series [5] worked out at 14 ×10⁻⁶ cm/s.
